Data from ChEMBL document CHEMBL1146876, “Structurally diverse 5-substituted pyrimidine nucleosides as inhibitors of Leishmania donovani promastigotes in vitro” (Bioorg Med Chem Lett, 2006).

System: Leishmania donovani
Experiment: Antileishmanial activity against Leishmania donovani LV9 promastigotes by MTT method
Assay type: functional, organism-based

SMILES	IC50
CC(=O)OC[C@H]1O[C@@H](n2cc(C3C(C#N)=C(N)OC4=C3C(=O)CC(c3ccc(F)cc3)C4)c(=O)[nH]c2=O)C[C@@H]1OC(C)=O (some centres undefined)	95.3 µM
N#CC1=C(N)Oc2cc3ccccc3c(O)c2C1c1cn([C@H]2C[C@H](O)[C@@H](CO)O2)c(=O)[nH]c1=O (some centres undefined)	> 100 µM
CC(=O)OC[C@H]1O[C@@H](n2cc(C3C(C#N)=C(N)OC4=C3C(=O)CC(c3ccccc3)C4)c(=O)[nH]c2=O)C[C@@H]1OC(C)=O (some centres undefined)	85.9 µM
N#CC(C#N)=Cc1cn([C@H]2C[C@H](O)[C@@H](CO)O2)c(=O)[nH]c1=O	1.5 µM
CC(=O)OC[C@H]1O[C@@H](n2cc(C=O)c(=O)[nH]c2=O)C[C@@H]1OC(C)=O	> 100 µM
CC(=O)OC[C@H]1O[C@@H](n2cc(C=C(C#N)C#N)c(=O)[nH]c2=O)C[C@@H]1OC(C)=O	30.1 µM
CC(=O)OC[C@H]1O[C@@H](n2cc(/C=C/C#N)c(=O)[nH]c2=O)C[C@@H]1OC(C)=O	> 100 µM
N#C/C=C/c1cn([C@H]2C[C@H](O)[C@@H](CO)O2)c(=O)[nH]c1=O	92 µM
COC(=O)/C(C#N)=C/c1cn([C@H]2C[C@H](O)[C@@H](CO)O2)c(=O)[nH]c1=O	7.3 µM
N#CC1=C(N)OC2=C(C(=O)CCC2)C1c1cn([C@H]2C[C@H](O)[C@@H](CO)O2)c(=O)[nH]c1=O (some centres undefined)	1.4 µM
CCOC(=O)C1=C(N)OC2=C(C(=O)CC(C)(C)C2)C1c1cn([C@H]2C[C@H](O)[C@@H](CO)O2)c(=O)[nH]c1=O (some centres undefined)	7.2 µM
CC(=O)OC[C@H]1O[C@@H](n2cc(C3C(C#N)=C(N)Oc4cc5ccccc5c(O)c43)c(=O)[nH]c2=O)C[C@@H]1OC(C)=O (some centres undefined)	> 100 µM
CC(=O)OC[C@H]1O[C@@H](n2cc(C3C(C#N)=C(N)OC4=C3C(=O)CCC4)c(=O)[nH]c2=O)C[C@@H]1OC(C)=O (some centres undefined)	68.7 µM
CC(=O)OC[C@H]1O[C@@H](n2cc(C3C(C#N)=C(N)OC4=C3C(=O)CC(c3ccc(Cl)cc3)C4)c(=O)[nH]c2=O)C[C@@H]1OC(C)=O (some centres undefined)	80.2 µM
CC1(C)CC(=O)C2=C(C1)OC(N)=C(C#N)C2c1cn([C@H]2C[C@H](O)[C@@H](CO)O2)c(=O)[nH]c1=O (some centres undefined)	> 100 µM
CC1=NN(c2ccccc2)C(=O)/C1=C(\C)c1cn([C@H]2C[C@H](O)[C@@H](CO)O2)c(=O)[nH]c1=O	3 µM
CC(=O)OC[C@@H]1O[C@H](n2cc(C3C(C#N)=C(N)OC4CC(c5ccc(N(C)C)cc5)CC(=O)C43)c(=O)[nH]c2=O)C[C@H]1OC(C)=O (some centres undefined)	100 µM

SMILES	IC50
CN(C)c1ccc(C2CC(=O)C3C(C2)OC(N)=C(C#N)C3c2cn([C@@H]3C[C@@H](O)[C@H](CO)O3)c(=O)[nH]c2=O)cc1 (some centres undefined)	6.2 µM
N#Cc1cn([C@H]2C[C@H](O)[C@@H](CO)O2)c(=O)[nH]c1=O	> 100 µM
CCOC(=O)/C(C#N)=C/c1cn([C@H]2C[C@H](OC(C)=O)[C@@H](COC(C)=O)O2)c(=O)[nH]c1=O	39.1 µM
CN(C)c1ccc2c(c1)OC(N)=C(C#N)C2c1cn([C@H]2C[C@H](O)[C@@H](CO)O2)c(=O)[nH]c1=O (some centres undefined)	> 100 µM
O=Cc1cn([C@H]2C[C@H](O)[C@@H](CO)O2)c(=O)[nH]c1=O	0.9 µM
CCOC(=O)C1=C(N)OC2=C(C(=O)CC(C)(C)C2)C1c1cn([C@H]2C[C@H](OC(C)=O)[C@@H](COC(C)=O)O2)c(=O)[nH]c1=O (some centres undefined)	> 100 µM
CC1CC(=O)C2=C(C1)OC(N)=C(C#N)C2c1cn([C@H]2C[C@H](O)[C@@H](CO)O2)c(=O)[nH]c1=O (some centres undefined)	9.4 µM
N#CC1=C(N)OC2=C(C(=O)CC(c3ccc(Cl)cc3)C2)C1c1cn([C@H]2C[C@H](O)[C@@H](CO)O2)c(=O)[nH]c1=O (some centres undefined)	> 100 µM
CCOC(=O)C1=C(N)OC2=C(C(=O)CCC2)C1c1cn([C@H]2C[C@H](O)[C@@H](CO)O2)c(=O)[nH]c1=O (some centres undefined)	10.5 µM
N#CC1=C(N)OC2=C(C(=O)CC(c3ccc(F)cc3)C2)C1c1cn([C@H]2C[C@H](O)[C@@H](CO)O2)c(=O)[nH]c1=O (some centres undefined)	8.4 µM
CC(=O)OC[C@H]1O[C@@H](n2cc(C3C(C#N)=C(N)OC4=C3C(=O)CC(C)C4)c(=O)[nH]c2=O)C[C@@H]1OC(C)=O (some centres undefined)	> 100 µM
CC(=O)OC[C@H]1O[C@@H](n2cc(C3C(C#N)=C(N)OC4=C3C(=O)CC(C)(C)C4)c(=O)[nH]c2=O)C[C@@H]1OC(C)=O (some centres undefined)	80.4 µM
CC(=O)OC[C@H]1O[C@@H](n2cc(/C=C\C#N)c(=O)[nH]c2=O)C[C@@H]1OC(C)=O	> 100 µM
CCOC(=O)/C(C#N)=C/c1cn([C@H]2C[C@H](O)[C@@H](CO)O2)c(=O)[nH]c1=O	1.9 µM
C[C@@H]1[C@H](O)[C@@H](C)/C=C/C=C/C=C/C=C/C=C/C=C/C=C/[C@H](O[C@@H]2O[C@H](C)[C@@H](O)[C@H](N)[C@@H]2O)C[C@@H]2O[C@](O)(C[C@@H](O)C[C@@H](O)[C@H](O)CC[C@@H](O)C[C@@H](O)CC(=O)O[C@H]1C)C[C@H](O)[C@H]2C(=O)O [AMPHOTERICIN B]	0.1 µM
N=C(N)c1ccc(OCCCCCOc2ccc(C(=N)N)cc2)cc1 [PENTAMIDINE]	6.6 µM
Cc1cn([C@H]2C[C@H](N=[N+]=[N-])[C@@H](CO)O2)c(=O)[nH]c1=O [ZIDOVUDINE]	3.4 µM
